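Dose response: 5 concentrations. Exposure: 48 h. Format: 96-well plates. Endpoint: linear interpolation; highest concentration if not reached. Here, GI50 denotes the concentration required for 50% inhibition of growth.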 Active and inactive are the calls of the source. Rule as the data show it: active = GI50 up to about 1.1 µM and inactive = higher.
Columns and labels:
Assay in all cases: NCI-60 cell line screen, 48 h
[1] = system: MCF7
[2] = system: OVCAR-8
[3] = system: SF-295
[4] = system: HOP-18
[5] = system: NCI-H460
[6] = system: DLD-1
[7] = system: HCT-116
[8] = system: HCT-15
[9] = system: NCI-H23
[10] = system: U-251
[11] = system: SK-MEL-5
[12] = system: KM-20L2
[13] = system: CAKI-1
[14] = system: UACC-62
[15] = system: HT-29
[16] = system: EKVX
[17] = system: HL-60
[18] = system: NCI-H522
[19] = system: K562
[20] = system: OVCAR-3
[21] = system: HOP-62
[22] = system: HCC 2998
[23] = system: SF-268
[24] = system: OVCAR-4
[25] = system: SF-539
[26] = system: SW-620
[27] = system: OVCAR-5
[28] = system: SNB-19
[29] = system: UACC-257
[30] = system: SK-OV-3
[31] = system: NCI/ADR-RES
[32] = system: KM12
[33] = system: COLO 205
[34] = system: LOX IMVI
[35] = system: DMS-273
[36] = system: RXF 393
[37] = system: RPMI-8226
[38] = system: XF498
[39] = system: A498
[40] = system: SK-MEL-2
[41] = system: A549
[42] = system: HOP-92
[43] = system: SNB-75
[44] = system: Malme-3M
[45] = system: MOLT-4
[46] = system: NCI-H226
[47] = system: SK-MEL-28
[48] = system: SNB-78
[49] = system: M19-MEL
[50] = system: CCRF-CEM
[51] = system: UO-31
[52] = system: SN12C
[53] = system: IGROV-1

Structure (SMILES): COc1ccc2c(c1O)-c1cc(O)cc3c1[C@@H](C2)N(C)CC3
- GI50 [1]: 61.8 µM (inactive)
- GI50 [2]: 8.79 µM (inactive)
- GI50 [3]: 72.3 µM (inactive)
- GI50 [4]: 67.3 µM (inactive)
- GI50 [5]: 74 µM (inactive)
- GI50 [6]: 43.2 µM (inactive)
- GI50 [7]: 27 µM (inactive)
- GI50 [8]: 71.1 µM
- GI50 [9]: 96.8 µM (inactive)
- GI50 [10]: 10.7 µM (inactive)
- GI50 [11]: 62.2 µM (inactive)
- GI50 [12]: 2.84 µM (inactive)
- GI50 [13]: 12.3 µM (inactive)
- GI50 [14]: 70 µM (inactive)
- GI50 [15]: > 92.3 µM (inactive)
- GI50 [16]: 98.4 µM (inactive)
- GI50 [17]: 11 µM (inactive)
- GI50 [18]: 121 µM (inactive)
- GI50 [19]: 67.6 µM (inactive)
- GI50 [20]: 55.8 µM (inactive)
- GI50 [21]: 32.9 µM (inactive)
- GI50 [22]: 73.6 µM (inactive)
- GI50 [23]: 75.3 µM (inactive)
- GI50 [24]: 60.5 µM (inactive)
- GI50 [25]: 81.1 µM (inactive)
- GI50 [26]: 61.8 µM (inactive)
- GI50 [27]: 6.41 µM (inactive)
- GI50 [28]: 101 µM (inactive)
- GI50 [29]: 71 µM (inactive)
- GI50 [30]: 203 µM (inactive)
- GI50 [31]: 75.9 µM (inactive)
- GI50 [32]: 54.8 µM (inactive)
- GI50 [33]: 50.7 µM (inactive)
- GI50 [34]: 56.6 µM (inactive)
- GI50 [35]: 65.8 µM (inactive)
- GI50 [36]: 55.7 µM (inactive)
- GI50 [37]: 75.3 µM (inactive)
- GI50 [38]: 93.8 µM (inactive)
- GI50 [39]: 49.9 µM (inactive)
- GI50 [40]: 27.5 µM (inactive)
- GI50 [41]: 77.1 µM (inactive)
- GI50 [42]: 19 µM (inactive)
- GI50 [43]: 60.7 µM (inactive)
- GI50 [44]: 64 µM (inactive)
- GI50 [45]: 66.1 µM (inactive)
- GI50 [46]: 47 µM (inactive)
- GI50 [47]: 80 µM (inactive)
- GI50 [48]: 83 µM (inactive)
- GI50 [49]: 67.8 µM (inactive)
- GI50 [50]: 81.1 µM (inactive)
- GI50 [51]: 44.2 µM (inactive)
- GI50 [52]: 82 µM (inactive)
- GI50 [53]: 72.8 µM (inactive)
